Patent US20250171438A1 (Agios Pharmaceuticals, Inc., priority 2022, published 2025)

Each compound was assayed against T1, human PAH with the R408W mutation (Homo sapiens, UniProt P00439, R408W) (assay: Cell Based Phenylalanine Flux Assay). Conditions: A375 cells expressing human R408W PAH; 24 hrs compound incubation; 13C-Tyrosine by LC-MS; average where tested multiple times; read-out: AC50.
T1 construct: expressed in transfected cells
T1 sequence (P00439 1-452 R408W): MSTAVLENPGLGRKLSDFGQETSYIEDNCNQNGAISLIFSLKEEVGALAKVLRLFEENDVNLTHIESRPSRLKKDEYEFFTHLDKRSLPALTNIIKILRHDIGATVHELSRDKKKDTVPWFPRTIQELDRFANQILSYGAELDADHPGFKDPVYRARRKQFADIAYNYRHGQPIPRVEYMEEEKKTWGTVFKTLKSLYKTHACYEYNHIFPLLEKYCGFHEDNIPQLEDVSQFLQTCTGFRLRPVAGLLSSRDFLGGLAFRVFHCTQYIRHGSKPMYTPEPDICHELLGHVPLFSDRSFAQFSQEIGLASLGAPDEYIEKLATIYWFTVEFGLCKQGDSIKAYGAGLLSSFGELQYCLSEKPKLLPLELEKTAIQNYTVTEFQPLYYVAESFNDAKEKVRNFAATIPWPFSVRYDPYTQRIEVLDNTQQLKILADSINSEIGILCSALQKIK

Structure (SMILES)	AC50 [nM]
O=C(c1oc(C2CC2)nc1C(F)F)N1CCc2[nH]cnc2[C@@H]1c1nc2ccccc2s1 [Example 1622, (R)-(4-(benzo[d]thiazol-2-yl)-6,7-dihydro-1H-imidazo[4,5-c]pyridin-5(4H)-yl)(2-cyclopropyl-4-(difluoromethyl)oxazol-5-yl)methanone]	< 500
CN1CCN(c2nc(C(F)(F)F)c(C(=O)N3CCc4[nH]cnc4[C@H]3c3nc4c(F)cccc4s3)o2)CC1 [Example 1623, (S)-(4-(4-fluorobenzo[d]thiazol-2-yl)-6,7-dihydro-1H-imidazo[4,5-c]pyridin-5(4H)-yl)(2-(4-methylpiperazin-1-yl)-4-(trifluoromethyl)oxazol-5-yl)methanone]	< 500
CN1CCN(c2nc(C(F)(F)F)c(C(=O)N3CCc4[nH]cnc4[C@@H]3c3nc4c(F)cccc4s3)o2)CC1 [Example 1624, (R)-(4-(4-fluorobenzo[d]thiazol-2-yl)-6,7-dihydro-1H-imidazo[4,5-c]pyridin-5(4H)-yl)(2-(4-methylpiperazin-1-yl)-4-(trifluoromethyl)oxazol-5-yl)methanone]	< 500
O=C(c1oc(CCC2CC2)nc1C(F)(F)F)N1CCc2[nH]cnc2[C@H]1c1nc2c(F)cccc2s1 [Example 1625]	< 500
O=C(c1oc(CCC2CC2)nc1C(F)(F)F)N1CCc2[nH]cnc2[C@@H]1c1nc2c(F)cccc2s1 [Example 1626, (R)-(2-(2-cyclopropylethyl)-4-(trifluoromethyl)oxazol-5-yl)(4-(4-fluorobenzo[d]thiazol-2-yl)-6,7-dihydro-1H-imidazo[4,5-c]pyridin-5(4H)-yl)methanone]	< 500
O=C(c1oc(CN2CCOCC2)nc1C(F)(F)F)N1CCc2[nH]cnc2[C@H]1c1nc2ccccc2s1 [Example 1627]	< 500
O=C(c1oc(CN2CCOCC2)nc1C(F)(F)F)N1CCc2[nH]cnc2[C@@H]1c1nc2ccccc2s1 [Example 1628, (R)-(4-(benzo[d]thiazol-2-yl)-6,7-dihydro-1H-imidazo[4,5-c]pyridin-5(4H)-yl)(2-(morpholinomethyl)-4-(trifluoromethyl)oxazol-5-yl)methanone]	< 500
O=C(N1CCc2[nH]cnc2[C@H]1c1nc2ccccc2s1)C1(c2cnco2)CC1 [Example 1629]	500 to 1000
O=C(c1sc(C2CC2)nc1Cl)N1CCc2[nH]cnc2[C@H]1c1nc2c(F)cccc2s1 [Example 1631]	500 to 1000
O=C(c1sc(C2CC2)nc1Cl)N1CCc2[nH]cnc2[C@@H]1c1nc2c(F)cccc2s1 [Example 1632, (R)-(4-chloro-2-cyclopropylthiazol-5-yl)(4-(4-fluorobenzo[d]thiazol-2-yl)-6,7-dihydro-1H-imidazo[4,5-c]pyridin-5(4H)-yl)methanone]	1000 to 5000
O=C(c1sc(N2CCOCC2)nc1C(F)(F)F)N1CCc2[nH]cnc2[C@H]1c1nc2c(F)cccc2s1 [Example 1633, (S)-(4-(4-fluorobenzo[d]thiazol-2-yl)-6,7-dihydro-1H-imidazo[4,5-c]pyridin-5(4H)-yl)(2-morpholino-4-(trifluoromethyl)thiazol-5-yl)methanone]	< 500
O=C(c1sc(N2CCOCC2)nc1C(F)(F)F)N1CCc2[nH]cnc2[C@@H]1c1nc2c(F)cccc2s1 [Example 1634, (R)-(4-(4-fluorobenzo[d]thiazol-2-yl)-6,7-dihydro-1H-imidazo[4,5-c]pyridin-5(4H)-yl)(2-morpholino-4-(trifluoromethyl)thiazol-5-yl)methanone]	500 to 1000
O=C(c1conc1C(F)(F)F)N1CCc2[nH]cnc2[C@H]1c1nc2c(F)cccc2s1 [Example 1635, (S)-(4-(4-fluorobenzo[d]thiazol-2-yl)-6,7-dihydro-1H-imidazo[4,5-c]pyridin-5(4H)-yl)(3-(trifluoromethyl)isoxazol-4-yl)methanone]	< 500
O=C(c1conc1C(F)(F)F)N1CCc2[nH]cnc2[C@@H]1c1nc2c(F)cccc2s1 [Example 1636, (R)-(4-(4-fluorobenzo[d]thiazol-2-yl)-6,7-dihydro-1H-imidazo[4,5-c]pyridin-5(4H)-yl)(3-(trifluoromethyl)isoxazol-4-yl)methanone]	500 to 1000
O=C(c1oc(C2(O)CCC2)nc1C(F)(F)F)N1CCc2[nH]cnc2[C@H]1c1nc2c(F)cccc2s1 [Example 1637, (S)-(4-(4-fluorobenzo[d]thiazol-2-yl)-6,7-dihydro-1H-imidazo[4,5-c]pyridin-5(4H)-yl)(2-(1-hydroxycyclobutyl)-4-(trifluoromethyl)oxazol-5-yl)methanone]	< 500
O=C(c1oc(C2(O)CCC2)nc1C(F)(F)F)N1CCc2[nH]cnc2[C@@H]1c1nc2c(F)cccc2s1 [Example 1638, (R)-(4-(4-fluorobenzo[d]thiazol-2-yl)-6,7-dihydro-1H-imidazo[4,5-c]pyridin-5(4H)-yl)(2-(1-hydroxycyclobutyl)-4-(trifluoromethyl)oxazol-5-yl)methanone]	< 500
O=C(c1scnc1Cl)N1CCc2[nH]cnc2[C@@H]1c1nc2c(F)cccc2s1 [Example 1639, (R)-(4-chlorothiazol-5-yl)(4-(4-fluorobenzo[d]thiazol-2-yl)-6,7-dihydro-1H-imidazo[4,5-c]pyridin-5(4H)-yl)methanone]	1000 to 5000
O=C(c1scnc1Cl)N1CCc2[nH]cnc2[C@H]1c1nc2c(F)cccc2s1 [Example 1640]	500 to 1000
CN(C)CCn1cc(C(=O)N2CCc3[nH]cnc3[C@H]2c2nc3c(F)cccc3s2)c(C(F)(F)F)n1 [Example 1641]	< 500
CN(C)CCn1cc(C(=O)N2CCc3[nH]cnc3[C@@H]2c2nc3c(F)cccc3s2)c(C(F)(F)F)n1 [Example 1642, (R)-(1-(2-(dimethylamino)ethyl)-3-(trifluoromethyl)-1H-pyrazol-4-yl)(4-(4-fluorobenzo[d]thiazol-2-yl)-6,7-dihydro-1H-imidazo[4,5-c]pyridin-5(4H)-yl)methanone]	500 to 1000
Cn1cc(C(=O)N2CCc3[nH]cnc3[C@@H]2c2nc3c(F)cccc3s2)c(Cl)n1 [Example 1643, (R)-(3-chloro-1-methyl-1H-pyrazol-4-yl)(4-(4-fluorobenzo[d]thiazol-2-yl)-6,7-dihydro-1H-imidazo[4,5-c]pyridin-5(4H)-yl)methanone]	1000 to 5000
Cn1cc(C(=O)N2CCc3[nH]cnc3[C@H]2c2nc3c(F)cccc3s2)c(Cl)n1 [Example 1644]	< 500
O=C([C@@H]1CC1(F)F)N1CCc2[nH]cnc2[C@H]1c1nc2c(F)cccc2s1 [Example 1645]	500 to 1000
O=C([C@@H]1CC1(F)F)N1CCc2[nH]cnc2[C@@H]1c1nc2c(F)cccc2s1 [Example 1646, ((S)-2,2-difluorocyclopropyl)((R)-4-(4-fluorobenzo[d]thiazol-2-yl)-6,7-dihydro-1H-imidazo[4,5-c]pyridin-5(4H)-yl)methanone]	1000 to 5000
O=C(CC1(O)CCC1)N1CCc2[nH]cnc2[C@H]1c1nc2c(F)cccc2s1 [Example 1647, (S)-1-(4-(4-fluorobenzo[d]thiazol-2-yl)-6,7-dihydro-1H-imidazo[4,5-c]pyridin-5(4H)-yl)-2-(1-hydroxycyclobutyl)ethanone]	500 to 1000
O=C(CC1(O)CCC1)N1CCc2[nH]cnc2[C@@H]1c1nc2c(F)cccc2s1 [Example 1648, (R)-1-(4-(4-fluorobenzo[d]thiazol-2-yl)-6,7-dihydro-1H-imidazo[4,5-c]pyridin-5(4H)-yl)-2-(1-hydroxycyclobutyl)ethanone]	1000 to 5000
